Results on four substances are retold here after US20260139017A1, “COMPOSITIONS AND METHODS USING REELIN IN ALZHEIMER'S DISEASE” (The General Hospital Corporation, priority 2022, published 2026).

One assay has as its system pDAB1 (Tyr232). As to the kind of experiment: HRECs treated 5 minutes with HEK 293T-derived mini-RELN media, pDAB1 western blot. Type of assay: cell-based, human. The settings on record: HEK 293T-derived media 1:1, 1:4, 1:14, 5 minutes. How it is done: The effect of in vitro treatment with RELN or miniRELN protein was also evaluated. HRECs were cultured in EBM-2 media enriched with EGM-2 Single Quots (Lonza) at 37° C. and 5% CO2 and experimentally tested at passage 7. 24 h prior experiment, cells were plated on a 6-well plate at 500,000 cells/mL. Two hours before the experiment, the cells were washed with PBS to remove residual growth media and then incubated with a starving media including EBM-2, 1% GlutaMax+0,2% Normicin. Treatments was conducted using media derived from HEK 293T cells transiently transfected for 24 h with different mini-RELN constructs in the presence of Lipofectamine 2000. […] Total protein levels were quantified via BCA assay. […] We detected pDAB1 (Tyr232; 1:1000, rabbit, #3325 Cell signaling), and Beta actin (1:5000, mouse, #66009-1-Ig, Proteintech. Antibodies were diluted using Intercept® (TBS) Blocking Buffer and incubated overnight at 4C under gentle shaking. Prior secondary antibody incubation, membranes were washes 2 times using TBS-T for 10 minutes. As secondary antibodies we used IR Dye 800n CW Goat-anti-Rabbit (925-32211, Licor) and IR Dye 680 CW Goat-anti-Mouse (925-68070, Licor) both diluted 1:10000 in blocking buffer for 1 h at room temperature under gentle shaking. Membranes were washed three times with TBS-T prior IR detection using Odyssey imager. […]
Background: Immunoblotting shows a protein as a band on a membrane.

The test system of assay [1] is human retinal endothelial cells. As to the kind of experiment: GFP mRNA cargo uptake with CTR peptide in retinal endothelial cells. It counts as cell-based. Particulars: 5 μg mRNA mixed with peptide, 24 hours. As for the experimental part:
To evaluate this, HMRECs were cultured in a 24 well plate until 80% confluency complete endothelial growth media 2 (EGM-2, Lonza, Switzerland). For the treatments, 5 μg of mRNA were added to all the formulations. We prepared mRNA/peptide conjugates by mixing each amount of peptide ([…]) (SEQ ID NO:59) and mRNA prior to dilution in EGM-2. HMRECs were cultured with treatment media for 24 hours followed by fluorescence measurements in a microplate reader Synergy H1 (Biotek, VT) upon exciting at 482 nm and recording emission at 520 nm.

Assay [2] can be described thus: Heparin-sepharose affinity column chromatography, NaCl step gradient. It counts as binding. How it is done:
We tested changes in binding to heparin of RELN variants chromatographically using an optimized version of a protocol previously published by our laboratory (1). Briefly, after equilibration of the heparin column (BioVision 6554-1) at R.T., columns were washed with five volumes of degassed 20 mM TRIS-HCl buffer (pH 7.5). Recombinant C-terminus RELN peptides were produced and purified by Innovagen (Sweden): (WT) […](SEQ ID NO:56), and (H3447R) […](SEQ ID NO:53). One mL of 50 μg/mL peptide (H3447 or WT, and H3447R) was recycled through the column five times and the last flow through collected for further analysis. The column was washed five times with the same buffer and the protein eluted using a 0.05 M step gradient of NaCl in 20 mM Tris-HCl (0-1M, one mL per fraction). To ensure the complete release of the protein, the column was washed with five M NaCl 20 mM Tris-HCl. Three independent experiments were conducted for C-terminus RELN WT and H3447R. All eluted fractions were analyzed spectroscopically by reading the absorbance at 280 nm using Nanodrop 2000 Spectrophotometer. Blank corrected fractions were subsequently analyzed using GraphPad Prism 8.
To assess Reelin-heparin binding affinity, Reelin variants were run on a heparin column with steps of 0.05M in a range of 0.05-1M NaCl over 20 1 mL column volumes in 20 mM Tris HCl, as described in Arboleda et. al 2019 (2). Sample fractions were eluted at an increasing NaCl step size to determine the ionic strength needed to disrupt the binding between Reelin and heparin. Therefore, the stronger the interaction, the higher concentration of salt would be needed to disrupt the bond.

Another assay addresses T1, Aβ42 (Homo sapiens, UniProt P05067).
T1 construct: SensoLyte ThT O-Amyloid (1-42) Aggregation kit
In words: Thioflavin T (ThT) Aβ aggregation assay. It counts as biochemical. Particulars: Aβ42 55 μM, 10 μM peptide, vs Aβ alone. How it is done: Therefore, the ThT assay can be used to quantify AB aggregation using previously developed methods (40).
We incubated CTR-RELN with Aβ and monitored aggregation using a ThioflavinT fluorescence assay normalized to the maximum ThT emission of Aβ only. We also assayed Aβ in the presence of morin, a known inhibitor (41), as a […]. Long and short WT and H3447R RELN CTR peptides were included to better understand the potential role of the H3447R mutation in amyloid pathology (FIGS. 14 and 15. Negative controls included long and short RELN CTR peptides with neutrally charged AAs (histidines) in place of basic AAs in the alpha- and beta-GAG binding sites.
A Thioflavin T (ThT) assay was also performed using synthetic Reelin peptides to assess the differential effects of these proteins on Aβ42 aggregation in vitro using Thioflavin T (SensoLyte ThT O-Amyloid (1-42) Aggregation kit, catalog no. ΔS-72214). Aβ42 was added to a final concentration of 55 μM in solutions of 10 μM of Reelin peptide variants in a transparent, no-binding 96-well plate. Samples were then mixed with 2 mM Thioflavin T dye and fluorescence was read at excitation wavelength/emission wavelength (Ex/Em)=440/484 nm at intermittent time intervals over 2 h. The plate was kept at 37° C. with 15 s shaking between reads. […] In general, it appears that the RELN Cterm domain is highly unstructured. […] If the mini-RELN includes the C-term domain only without a receptor binding domain then the protection will not involve signaling, but will still involve direct interactions with tau. If the mini-RELN includes the C-term domain and the receptor binding domain, it will have at least two protective mechanisms, namely RELN signaling and direct interactions with tau.

A further assay has as its target T2, APOER2 (Homo sapiens, UniProt Q14114).
T2 construct: purchased OnGene (so in the source)
T2 sequence (Q14114 33-963): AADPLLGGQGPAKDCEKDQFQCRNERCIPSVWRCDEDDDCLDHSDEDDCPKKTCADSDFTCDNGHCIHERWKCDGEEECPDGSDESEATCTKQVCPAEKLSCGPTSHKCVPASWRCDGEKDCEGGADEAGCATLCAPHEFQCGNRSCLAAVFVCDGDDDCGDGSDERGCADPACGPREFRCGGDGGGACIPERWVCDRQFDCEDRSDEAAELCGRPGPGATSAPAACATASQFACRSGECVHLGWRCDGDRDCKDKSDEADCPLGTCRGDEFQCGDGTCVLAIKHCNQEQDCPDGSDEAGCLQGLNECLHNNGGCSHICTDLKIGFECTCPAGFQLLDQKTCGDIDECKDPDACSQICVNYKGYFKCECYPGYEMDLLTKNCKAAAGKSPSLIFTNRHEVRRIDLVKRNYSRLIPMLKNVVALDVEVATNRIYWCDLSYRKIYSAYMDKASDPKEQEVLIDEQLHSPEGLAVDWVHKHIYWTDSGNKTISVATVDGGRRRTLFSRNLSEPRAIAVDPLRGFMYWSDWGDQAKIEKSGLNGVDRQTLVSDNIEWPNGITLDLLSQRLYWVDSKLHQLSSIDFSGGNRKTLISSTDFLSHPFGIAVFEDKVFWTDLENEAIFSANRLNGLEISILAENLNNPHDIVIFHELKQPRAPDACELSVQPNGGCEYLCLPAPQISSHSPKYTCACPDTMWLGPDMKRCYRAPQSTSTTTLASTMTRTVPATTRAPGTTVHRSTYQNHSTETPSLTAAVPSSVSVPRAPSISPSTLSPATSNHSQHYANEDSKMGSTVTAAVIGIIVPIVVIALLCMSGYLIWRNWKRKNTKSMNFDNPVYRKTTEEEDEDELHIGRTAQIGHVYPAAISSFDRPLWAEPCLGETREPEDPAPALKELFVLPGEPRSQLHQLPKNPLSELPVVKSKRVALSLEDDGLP
In words: ELISA cell-free binding of RELN variants to ApoEr2. As for the experimental part:
(§1) Enzyme-linked immunosorbent assay (ELISA) was used to quantify changes in binding of RELN variants (media-derived full-length or CTR-RELN) to either VLDLr or ApoEr2 following an optimized version of a previously published protocol (6). Briefly, ELISA strips (DY008, R&D Systems) were coated with one ng/μL (100 μL/well) of VLDLr (8444-VL, R&D) or ApoEr2 (TP320903, OnGene) receptors diluted in 25 mM Tris HCl, 140 mM NaCl, […], two mM CaCl2), pH 7.4 (TBS-C buffer). After 18 h at four ° C. incubation, plates were blocked one h with three % BSA (22070008-6, Bioworld), 0.05% Tween-20 (Sigma Aldrich) TBS-C buffer. We assessed binding via incubation with 100 μL/well of serial dilutions of recombinant RELN protein (Ser1221-Gln2666, 8546-MR-050, R&D) or RELN variants in TBS-C buffer for one hour at room temperature. For detection, we used goat anti-mouse RELN primary antibody (LS-C793521-100, LS-Bio, 1:2,000, 100 μL/well) as primary antibody for one h at R.T. and (1:10,000; 100 μL/well, donkey anti-goat IgG H&L, HRP, ab6885, Abcam) as secondary antibody for 30 min. at R.T. Between each of the previous steps, plates were washed four times with TBS-C buffer (200 μL/well). Plates were washed three times prior to initiating the colorimetric reaction (DY008, R&D Systems). Stop solution (50 μL/well, DY008, R&D Systems) was added upon five min. incubation and the absorbance of the samples was measured at 450 nm using the Synergy 2 microplate reader (BioTek Instruments). Processing and analysis of the data was done using Gen5 1.11 software and GraphPad Prism, respectively.
(ELISA stands for enzyme-linked immunosorbent assay.)

The target in another assay is T3, VLDLr (Homo sapiens, UniProt P98155).
T3 construct: purchased R&D 8444-VL
As to the kind of experiment: ELISA cell-free binding of RELN variants to VLDLr. As for the experimental part:
as §1

The nature of assay [3]: Isothermal titration calorimetry (ITC) of CTR-RELN with heparin. Type of assay: binding. The settings on record: titrated with 5 μM heparin, vs WT.

“Also recorded” adds a separate entry of the source.

T1 sequence (P05067 672-713 limits assumed): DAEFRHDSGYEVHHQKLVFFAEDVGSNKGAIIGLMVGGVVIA

As for “IL2signalpeptide-6XHistag(SEQ ID NO: 62)-hReelin(AALeu1220-Ile2660) C-term-REELIN H3447R [225SU]”, the “pDAB1 / Dab1 signaling activation” value with pDAB1 (Tyr232) was “efficacy”.

For RKQNYMMNFSRQHGLRHFYNRRRR [WT short], in assay [1], the “GFP expression from mRNA cargo” value is reported as “increase in expression”.

Consider “RKQNYMMNFSRQHGLRHFYNRRRRSLRRYP [CTR-RELN WT]”, for which the “NaCl concentration of peak eluted fraction from heparin column” value in assay [2] (0.05 M NaCl step gradient in 20 mM Tris HCl, UV 280 nm) was found to be 0.55 M NaCl. In addition, in assay [2] (affinity chromatography, NaCl gradient), the “binding to and release from heparin column” value is reported as “bound to heparin”. In addition, the “Aβ aggregation (ThT fluorescence)” value is recorded as “reduced amyloid aggregation” on Aβ42 (listed as Cterm domain of RELN) and “decreased amyloid aggregation; also recorded: significantly reduced amyloid aggregation; also recorded: reduces Aβ aggregation” at Aβ42 (listed as RELN CTR). The “binding to APOER2” value at APOER2 is recorded as “unable to bind directly”. Moreover, on VLDLr, the “binding to VLDLr” value is on record as “unable to bind directly”.

In the case of RKQNYMMNFSRQHGLRRFYNRRRR [H3447R short], the “thermodynamics of heparin interaction” value in assay [3] is on record as “more negative Gibbs free energy”.
